Laboratory results: patent publication US20260132165A1, “MODIFIED NUCLEOSIDE ANALOGUE AND USE THEREOF, AND NUCLEOSIDE ANALOGUE-CONTAINING DOUBLE-STRANDED OLIGONUCLEOTIDE AND USE THEREOF” (RIGERNA THERAPEUTICS (BEIJING) CO., LTD., priority 2023, published 2026)

Legend:
target gene SOD1 [1] = assay: Test Example 8: inhibitory activity on target gene SOD1 in adipose tissues in different parts of mice; type: in vivo, C57BL/6j mice; conditions: tail vein injection 5 mg/kg, D14; for Subcutaneous fat % Mean value of inhibition rate: abdominal subcutaneous fat
Procedure: (§1) RNA extraction: the above tissue samples were taken out from the RNAlater, and smashed for 60 s in Tissuelyser type II full-automatic tissue homogenizer, and total RNAs of various tissue samples were extracted using the full-automatic nucleic acid extraction instrument and the nucleic acid extraction kit from Zhejiang Hanwei Science and Technology Co. Ltd. according to methods described in instructions.
(§2) Reverse transcription reaction: 1 μg of the extracted total RNAs of the tissue samples were taken, and configured into 20 μL of reverse transcription system according to a method described in kit instructions by using a reverse transcription kit (Reverse Transcription System, A3500) from Promega Corporation and selecting Oligo (dT)15 reverse transcription primers, and the reverse transcription reaction was completed. After the reaction was ended, 80 μL of RNase-Free water was added into the reverse transcription system to provide cDNA solution for Real-time PCR detection.
(§3) Real-time PCR detection: 20 μL of Real-time PCR reaction system per PCR detection well was configured according to a method described in kit instructions using SYBR™ Select Master Mix (Catalog number: 4472908) reagent from ABI company. Each detection system contained 5 μL of cDNA template obtained from the above reverse transcription reaction, 10 μL of SYBR™ Select Master Mix, 0.5 μL of 10 μM upstream primers, 0.5 μL of 10 μM downstream primers, and 4 μL of RNase-Free H2O. The configured reaction system was subjected to Real-time PCR amplification on ABI StepOnePlus PCR instrument by a three-step method, wherein an amplification procedure was pre-denaturation at 95° C. for 10 min, then denaturation at 95° C. for 30 s, annealing at 60° C. for 30 s, and extension at 72° C. for 30 s; and processes of denaturation, annealing, and extension were repeated for 40 cycles. Gene expression differences were calculated by the ΔΔCt method after completion of the procedure.
(§4) In the real-time fluorescence quantitative PCR method, relative quantitative calculation of remaining expression level and inhibition rate of gene mRNA of interest in various test groups was performed by the ΔΔCt method, and the calculation method is as follows:
The present test example evaluated, by an evaluation method for inhibitory activity on a target gene in mice, the inhibitory activity of siRNA sequence RZ899090 with the sense strand with the NM073 conjugation at Position 4, siRNA sequence RZ899091 with the sense strand with the NM074 conjugation at Position 4, siRNA sequence RZ899078 with the sense strand with the NM202 conjugation at Position 6 and siRNA reference sequence RZ899093 with the sense strand with the Uhd conjugation at Position 4, siRNA reference sequence RZ899076 with the sense strand with the NM200 conjugation at Position 4 on the target gene SOD1 in adipose tissues of interest in mice.
(§5) 6-8 Week-old C57BL/6j mice were randomly grouped by body weight, 5 per group, 6 groups in total. Mice in each group were dosed with the above siRNA conjugates by tail vein injection, with an administration dose of 5 mg/kg per mouse, and an administration volume of 150 μL. PBS control group was administered with the same volume of siRNA conjugate-free PBS solution. The day of administration was recorded as D0, and 5 mice in each group were sacrificed on D14 after administration. Paragonadal fat, abdominal subcutaneous fat, and brown fat on back were respectively taken. RNA extraction, reverse transcription, and real-time fluorescence quantitative detection were performed on various tissues according to the above method, and gene expression differences were calculated by the above ΔΔCt method.

target gene SOD1 [2] = assay: Test Example 9: inhibitory activity of lipid conjugated siRNA sequences on SOD1 in mouse muscle tissues; type: in vivo, C57BL/6j mice; conditions: D14; for Diaphragm % Mean value of inhibition rate / Heart % Mean value of inhibition rate / Left quadriceps muscle % Mean value of inhibition rate: tail vein injection 5 mg/kg; for Left quadriceps muscle % Mean value of inhibition rate: left hind leg quadriceps muscle
Procedure: as §1, §2, §3, §4
The present test example evaluated, by an evaluation method for inhibitory activity on a target gene in mice, the inhibitory activity of siRNA sequence RZ899090 with the sense strand with the NM073 conjugation at Position 4, siRNA sequence RZ899091 with the sense strand with the NM074 conjugation at Position 4, siRNA sequence RZ899078 with the sense strand with the NM202 conjugation at Position 6 and siRNA reference sequence RZ899093 with the sense strand with the Uhd conjugation at Position 4, siRNA reference sequence RZ899076 with the sense strand with the NM200 conjugation at Position 4 on the target gene SOD1 of interest in muscle tissues in different parts of mice.
as §5, with “Tissues such as left hind leg quadriceps muscle, diaphragm,” for “Paragonadal fat, abdominal subcutaneous fat,”, “heart tissues” for “brown fat on back”, “taken and stored in the RNAlater.” for “taken.”

Substance	Subcutaneous fat % Mean value of inhibition rate (target gene SOD1 [1])	Brown fat on back % Mean value of inhibition rate (target gene SOD1 [1])	Paragonadal fat % Mean value of inhibition rate (target gene SOD1 [1])	Diaphragm % Mean value of inhibition rate (target gene SOD1 [2])	inhibitory activity compared with the NM200 conjugated reference sequence RZ899076 (target gene SOD1 [2]; heart tissues, tail vein 5 mg/kg)	Heart % Mean value of inhibition rate (target gene SOD1 [2])	Left quadriceps muscle % Mean value of inhibition rate (target gene SOD1 [2])	inhibitory action on the left quadriceps muscle and diaphragm (target gene SOD1 [2]; left quadriceps muscle and diaphragm, tail vein 5 mg/kg)
RZ899078: siRNA sequence with the sense strand with the NM202 (C22) conjugation at Position 6; SEQ ID NO: 20 / 24 (sense UUUUANUCCUCACUCUAAA; antisense UUUAGAGUGAGGAUUAAAAUG; NM202 (C22) conjugate at sense position 6; modified_base 1..2 OTHER; 2'-methoxy and 5'-thiophosphate modified nucleotides; modified_base 3..5 OTHER; 2'-methoxy modified nucleotides; modified_base 6 OTHER; n is the synthetic nucleotide analog NM202 as described in the disclosure.; modified_base 7..10 OTHER; 2'-fluoro modified nucleotides; modified_base 11..19 OTHER; modified_base 1 OTHER; 2'-methoxy and 5'-thiovinylphosphonate modified nucleotide; modified_base 2 OTHER; 2'-fluoro and 5'-thiophosphate modified nucleotide; modified_base 6 OTHER;)	71.42%	67.27%	55.23%	47.67%	superior inhibitory activity	68.69%	32.10%	certain inhibitory action
RZ899076: siRNA reference sequence with the sense strand with the NM200 (C22) conjugation at Position 4; SEQ ID NO: 18 / 24 (sense UUUNAAUCCUCACUCUAAA; antisense UUUAGAGUGAGGAUUAAAAUG; NM200 (C22) conjugate at sense position 4; modified_base 1..2 OTHER; 2'-methoxy and 5'-thiophosphate modified nucleotides; modified_base 3 OTHER; 2'-methoxy modified nucleotide; modified_base 4 OTHER; n is the synthetic nucleotide analog NM200 as described in the disclosure.; modified_base 5..6 OTHER; 2'-methoxy modified nucleotides; modified_base 7..10 OTHER; 2'-fluoro modified nucleotides; modified_base 11..19 OTHER; 2'-methoxy modified ; modified_base 1 OTHER; 2'-methoxy and 5'-thiovinylphosphonate modified nucleotide; modified_base 2 OTHER; 2'-fluoro and 5'-thiophosphate modified …) [reference compound]	76.03%	80.80%	56.52%	74.58%	–	51.69%	60.97%	–
